Measurements taken from patent publication US20160115188A1, “NOVEL alpha-GALACTOSYL CERAMIDE ANALOGS AND USES THEREOF” (Chang Gung Memorial Hospital, Linkou, priority 2014, published 2016).
One block for each compound: values may come before it.

How the values were obtained:
Human iNKT cells = test: Cytokine production of human iNKT cells co-cultured with compound-loaded dendritic cells (Luminex); type: cell-based; details: for ratio of IL-4/IFN-γ / ratio of IL-10/IFN-γ: human iNKT cells with compound-loaded dendritic cells, Th2 skewing; for IFN-γ level induced / IL-2 level induced / IL-4 level induced / GM-CSF level induced / IL-10 level induced: dendritic cells loaded with 1 μM compound, cultured with iNKT cells for 3 days, mean±SD
Procedure: The immune response elicited by Compounds 1 and 2a-2i in human NKT cells was evaluated using human dendritic cell (DC).
Method: Human iNKT cells were isolated with anti-TCR Vα24 antibody and cultured for 7 days in the presence of IL-2 (1 μg/mL). The dendritic cells were generated from CD14+ cells, sorted from peripheral blood mononuclear cells (PBMC) by incubating PBMC for 7 days with GM-CSF (50 ng/mL) and IL-4 (50 ng/mL). Dendritic cells were loaded with the following: 1 μM of Compound 1 or 1 μM of Compounds 2a-2i, and cultured with iNKT cells for 3 days. The culture supernatants were collected and analyzed for various cytokines production by Luminex. Data were presented as mean±SD and analyzed by one-way ANOVA.
The ratios of IL-4/IFN-γ and IL-10/IFN-γ were used evaluate if the immune response elicited by Compounds 1 and 2a-2i was skewed toward Th2 mediated response.

mNK1.2 cells = test: Induction of IL-2 in mNK1.2 cells cultured with compound-loaded A20-CD1d cells (ELISA); type: cell-based, murine; details: cultured with mNK1.2 cells, supernatant after 72 hours
Procedure: The immune response elicited by Compounds 1 and 2a-2i was assessed by the induction of IL-2 in mNK1.2 cells. Compound 1 is illustrated by the following formula: […]
Method: A20-CD 1d cells were loaded with Compound 1 (α-GalCer) and Compounds 2a-2i, and cultured with mNK1.2 cells. Supernatants were collected after 72 hours to determine the production of IL-2 by ELISA.

[1] = Solubility noted during characterisation; type: physicochemical; details: room temperature; prevented optical rotation measurement
[2] = in words, relative to Compound 1

melting point: 64 to 66 °C
SMILES: CCCCCCCCCCCCCCCCCCCCCCCCCC(=O)N(C)[C@@H](CO[C@H]1OC(COC)[C@H](O)[C@H](O)C1O)[C@H](O)[C@H](O)CCCCCCCCCCCCCC (stereo partly drawn) [Compound 2a, (2S,3S,4R)-1-O-(6-O-methyl-α-D-galactopyranosyl)-D-ribo-2-N-methyl-hexacosanoylamino-1,3,4-octadecantriol]
ratio of IL-4/IFN-γ (Human iNKT cells): 0.032±0.0009 | ratio of IL-10/IFN-γ (Human iNKT cells): 0.63±0.07

SMILES: CCCCCCCCCCCCCCCCCCCCCCCCCC(=O)N[C@@H](CO[C@H]1O[C@H](COC)[C@H](O)[C@H](O)[C@H]1O)[C@H](O)[C@H](O)CCCCCCCCCCCCCC [Compound 2b, (2S,3S,4R)-1-O-(6-O-methyl-α-D-galactopyranosyl)-D-ribo-2-hexacosanoylamino-1,3,4-octa-decantriol]
IFN-γ level induced (Human iNKT cells): 2286 ± 344.3 pg/mL | levels of cytokines induced compared to Compound 1 (Human iNKT cells; [2]): similar | IL-2 level induced (mNK1.2 cells): 13.3 ± 1.3 ng/mL

SMILES: CCCCCCCCCCCCCCCCCCCCCCCCCC(=O)N[C@@H](CO[C@H]1O[C@H](COCCCCCC)[C@H](O)[C@H](O)[C@H]1O)[C@H](O)[C@H](O)CCCCCCCCCCCCCC [Compound 2c, (2S,3S,4R)-1-O-(6-O-hexyl-α-D-galactopyranosyl)-D-ribo-2-hexacosanoylamino-1,3,4-octa-decantriol]
ratio of IL-4/IFN-γ (Human iNKT cells): 0.044±0.011 | ratio of IL-10/IFN-γ (Human iNKT cells): 0.91±0.26

SMILES: CCCCCCCCCCCCCCCCCCCCCCCCCC(=O)N[C@@H](CO[C@H]1O[C@H](COCCCCCCCCCCCC)[C@H](O)[C@H](O)[C@H]1O)[C@H](O)[C@H](O)CCCCCCCCCCCCCC [Compound 2d, (2S,3S,4R)-1-O-(6-O-dodecyl-α-D-galactopyranosyl)-D-ribo-2-hexacosanoylamino-1,3,4-oct-adecantriol]
IL-2 level induced (Human iNKT cells): 33.8 ± 0.2 pg/mL | IL-4 level induced (Human iNKT cells): 191.5 ± 35.3 pg/mL | ratio of IL-4/IFN-γ (Human iNKT cells): 0.331±0.074 | ratio of IL-10/IFN-γ (Human iNKT cells): 0.83±0.1

SMILES: CCCCCCCCCCCCCCCCCCCCCCCCCC(=O)N[C@@H](CO[C@H]1O[C@H](COCCCCCCCCCCCCC)[C@H](O)[C@H](O)[C@H]1O)[C@H](O)[C@H](O)CCCCCCCCCCCCCC [Compound 2e, (2S,3S,4R)-1-O-(6-O-tridecyl-α-D-galactopyranosyl)-D-ribo-2-hexacosanoylamino-1,3,4-oct-adecantriol]
IL-2 level induced (Human iNKT cells): 32.5 ± 1.7 pg/mL | IL-4 level induced (Human iNKT cells): 140.4 ± 6.1 pg/mL | ratio of IL-4/IFN-γ (Human iNKT cells): 0.246±0.053 | ratio of IL-10/IFN-γ (Human iNKT cells): 0.73±0.03

SMILES: CCCCCCCCCCCCCCCCCCCCCCCCCC(=O)N[C@@H](CO[C@H]1O[C@H](COCCCCCCCCCCCCCCCCCCCC)[C@H](O)[C@H](O)[C@H]1O)[C@H](O)[C@H](O)CCCCCCCCCCCCCC [Compound 2f, (2S,3S,4R)-1-O-(6-O-eicosanyl-α-D-galactopyranosyl)-D-ribo-2-hexacosanoylamino-1,3,4-oc-tadecantriol]
ratio of IL-4/IFN-γ (Human iNKT cells): 0.093±0.041 | ratio of IL-10/IFN-γ (Human iNKT cells): 0.69±0.24

melting point: 182 °C
SMILES: CCCCCCCCCCCCCCCCCCCCCCCCCC(=O)N[C@@H](CO[C@H]1OC(COP(=O)(O)O)[C@H](O)C(O)C1O)[C@H](O)[C@H](O)CCCCCCCCCCCCCC (stereo partly drawn) [Compound 2g, (2S,3S,4R)-1-O-(6-O-phospho-α-D-galactopyranosyl)-D-ribo-2-hexacosanoylamino-1,3,4-oc-tadecantriol, phosphoric acid]
GM-CSF level induced (Human iNKT cells): 1350 ± 146.2 pg/mL | IFN-γ level induced (Human iNKT cells): 2704 ± 10.3 pg/mL | IL-10 level induced (Human iNKT cells): 2010 ± 325.1 pg/mL

SMILES: CCCCCCCCCCCCCCCCCCCCCCCCCC(=O)N[C@@H](CO[C@H]1OC(COS(=O)(=O)[O-])[C@H](O)C(O)C1O)[C@H](O)[C@H](O)CCCCCCCCCCCCCC.[Na+] (stereo partly drawn) [Compound 2h, (2S,3S,4R)-1-O-(6-O-sulfo-α-D-galactopyranosyl)-D-ribo-2-hexacosanoylamino-1,3,4-octadecantriol, sodium salt]
GM-CSF level induced (Human iNKT cells): 2024 ± 108.4 pg/mL | IFN-γ level induced (Human iNKT cells): 2739 ± 14.52 pg/mL | IL-2 level induced (Human iNKT cells): 60.3 ± 24.4 pg/mL | IL-4 level induced (Human iNKT cells): 113.9 ± 28.4 pg/mL

melting point: 187 to 188 °C | solubility [1]: poor solubility
SMILES: CCCCCCCCCCCCCCCCCCCCCCCCCC(=O)N[C@@H](CO[C@H]1OC(CN)[C@H](O)C(O)C1O)[C@H](O)[C@H](O)CCCCCCCCCCCCCC (stereo partly drawn) [Compound 2i, (2S,3S,4R)-1-O-(6-amine-α-D-galactopyranosyl)-D-ribo-2-hexacosanoylamino-1,3,4-octadecantriol]
IFN-γ level induced (Human iNKT cells): 2687 ± 89.4 pg/mL | IL-10 level induced (Human iNKT cells): 2001 ± 46.8 pg/mL | level of IFN-γ compared to Compound 1 (Human iNKT cells; [2]): comparable level | level of IL-4 compared to Compound 1 (Human iNKT cells; [2]): lower level | ratio of IL-4/IFN-γ compared to Compound 1 (Human iNKT cells; [2]): lower ratio

SMILES: CCCCCCCCCCCCCCCCCCCCCCCC(=O)N[C@@H](COC1OC(CO)C(O)C(O)C1O)[C@H](O)[C@H](O)CCCCC (some centres unmarked) [OCH, reference compound]
ratio of IL-4/IFN-γ (Human iNKT cells): 0.25 | ratio of IL-10/IFN-γ (Human iNKT cells): 0.26
